Assay results as given in PubChem BioAssay (NCI).
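Cells were grown in 96-well plates and exposed to each compound for 48 hours at five concentrations; endpoints were interpolated linearly between bracketing concentrations, or set to the highest concentration if not reached. GI50 = concentration required for 50% inhibition of growth. TGI is the concentration that stops growth completely.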

Key:
Experiment in all cases: inhibition of tumour cell growth, NCI panel, 48 h
786-0 renal = test system: 786-0 renal
A549 NSCLC = test system: A549 NSCLC
ACHN renal = test system: ACHN renal
BT-549 breast = test system: BT-549 breast
CAKI-1 renal = test system: CAKI-1 renal
CCRF-CEM leukemia = test system: CCRF-CEM leukemia
COLO 205 colon = test system: COLO 205 colon
DU-145 prostate = test system: DU-145 prostate
EKVX NSCLC = test system: EKVX NSCLC
HCC-2998 colon = test system: HCC-2998 colon
HCT-116 colon = test system: HCT-116 colon
HCT-15 colon = test system: HCT-15 colon
HL-60(TB) leukemia = test system: HL-60(TB) leukemia
HOP-62 NSCLC = test system: HOP-62 NSCLC
HOP-92 NSCLC = test system: HOP-92 NSCLC
HS 578T breast = test system: HS 578T breast
HT29 colon = test system: HT29 colon
IGROV1 ovarian = test system: IGROV1 ovarian
K-562 leukemia = test system: K-562 leukemia
KM12 colon = test system: KM12 colon
LOX IMVI melanoma = test system: LOX IMVI melanoma
M14 melanoma = test system: M14 melanoma
MALME-3M melanoma = test system: MALME-3M melanoma
MCF7 breast = test system: MCF7 breast
MDA-MB-231 breast = test system: MDA-MB-231 breast
MDA-MB-435 = test system: MDA-MB-435
MOLT-4 leukemia = test system: MOLT-4 leukemia
NCI-H226 lung = test system: NCI-H226 lung
NCI-H23 lung = test system: NCI-H23 lung
NCI-H460 lung = test system: NCI-H460 lung
NCI-H522 lung = test system: NCI-H522 lung
NCI/ADR-RES ovarian = test system: NCI/ADR-RES ovarian
OVCAR-3 ovarian = test system: OVCAR-3 ovarian
OVCAR-4 ovarian = test system: OVCAR-4 ovarian
OVCAR-5 ovarian = test system: OVCAR-5 ovarian
OVCAR-8 ovarian = test system: OVCAR-8 ovarian
PC-3 prostate = test system: PC-3 prostate
RPMI-8226 leukemia = test system: RPMI-8226 leukemia
RXF 393 renal = test system: RXF 393 renal
SF-268 CNS = test system: SF-268 CNS
SF-295 CNS = test system: SF-295 CNS
SF-539 CNS = test system: SF-539 CNS
SK-MEL-2 melanoma = test system: SK-MEL-2 melanoma
SK-MEL-28 melanoma = test system: SK-MEL-28 melanoma
SK-MEL-5 melanoma = test system: SK-MEL-5 melanoma
SK-OV-3 ovarian = test system: SK-OV-3 ovarian
SN12C renal = test system: SN12C renal
SNB-19 CNS = test system: SNB-19 CNS
SNB-75 CNS = test system: SNB-75 CNS
SR leukemia = test system: SR leukemia
SW-620 colon = test system: SW-620 colon
T-47D breast = test system: T-47D breast
TK-10 renal = test system: TK-10 renal
U251 CNS = test system: U251 CNS
UACC-257 melanoma = test system: UACC-257 melanoma
UACC-62 melanoma = test system: UACC-62 melanoma
UO-31 renal = test system: UO-31 renal

## Cc1cc(S(N)(=O)=O)c(S/C(=N\Nc2ccc([N+](=O)[O-])cc2)c2ccc3ccccc3c2)cc1Cl
786-0 renal
  GI50: 18.7 µM
  TGI: 42.9 µM
A549 NSCLC
  GI50: 54.1 µM
  TGI: > 100 µM
ACHN renal
  GI50: 17 µM
  TGI: 30.7 µM
BT-549 breast
  GI50: 20.5 µM
  TGI: 69.7 µM
CAKI-1 renal
  GI50: 17.5 µM
  TGI: 48.8 µM
CCRF-CEM leukemia
  GI50: 50.4 µM
  TGI: > 100 µM
COLO 205 colon
  GI50: 84 µM
  TGI: > 100 µM
DU-145 prostate
  GI50: 13.2 µM
  TGI: 43 µM
EKVX NSCLC
  GI50: 17.9 µM
  TGI: 64.3 µM
HCC-2998 colon
  GI50: 14.7 µM
  TGI: 30.1 µM
HCT-116 colon
  GI50: 4.67 µM
  TGI: > 100 µM
HCT-15 colon
  GI50: 20.1 µM
  TGI: 41 µM
HL-60(TB) leukemia
  GI50: > 100 µM
  TGI: > 100 µM
HOP-62 NSCLC
  GI50: 22.8 µM
  TGI: 68.5 µM
HOP-92 NSCLC
  GI50: 1.32 µM
  TGI: 19.6 µM
HS 578T breast
  GI50: 2.19 µM
  TGI: 8.86 µM
HT29 colon
  GI50: 73.2 µM
  TGI: > 100 µM
IGROV1 ovarian
  GI50: 54.3 µM
  TGI: > 100 µM
K-562 leukemia
  GI50: 28 µM
  TGI: > 100 µM
KM12 colon
  GI50: 25.2 µM
  TGI: 99 µM
LOX IMVI melanoma
  GI50: 20.3 µM
  TGI: 40.9 µM
M14 melanoma
  GI50: 44.1 µM
  TGI: > 100 µM
MALME-3M melanoma
  GI50: 11.7 µM
  TGI: 25.7 µM
MCF7 breast
  GI50: 19.9 µM
  TGI: > 100 µM
MDA-MB-231 breast
  GI50: 13.4 µM
  TGI: 29.6 µM
MDA-MB-435
  GI50: 22.2 µM
  TGI: 64.9 µM
MOLT-4 leukemia
  GI50: 73.9 µM
  TGI: > 100 µM
NCI-H226 lung
  GI50: 18.4 µM
  TGI: 38.3 µM
NCI-H23 lung
  GI50: 16.4 µM
  TGI: 30.2 µM
NCI-H460 lung
  GI50: 18.5 µM
  TGI: > 100 µM
NCI-H522 lung
  GI50: 22.9 µM
  TGI: > 100 µM
NCI/ADR-RES ovarian
  GI50: 13.9 µM
  TGI: 41.9 µM
OVCAR-3 ovarian
  GI50: 17.5 µM
  TGI: 58.5 µM
OVCAR-4 ovarian
  GI50: 61.1 µM
  TGI: > 100 µM
OVCAR-5 ovarian
  GI50: 14.8 µM
  TGI: 27.9 µM
OVCAR-8 ovarian
  GI50: 14 µM
  TGI: > 100 µM
PC-3 prostate
  GI50: 14.2 µM
  TGI: 27.4 µM
RPMI-8226 leukemia
  GI50: 37.7 µM
  TGI: > 100 µM
RXF 393 renal
  GI50: 8.69 µM
  TGI: 54.8 µM
SF-268 CNS
  GI50: 10.1 µM
  TGI: 44.4 µM
SF-295 CNS
  GI50: 20 µM
  TGI: 66.2 µM
SF-539 CNS
  GI50: 4.1 µM
  TGI: 18.7 µM
SK-MEL-2 melanoma
  GI50: > 100 µM
  TGI: > 100 µM
SK-MEL-28 melanoma
  GI50: 35.1 µM
  TGI: > 100 µM
SK-MEL-5 melanoma
  GI50: 16.5 µM
  TGI: 36.8 µM
SK-OV-3 ovarian
  GI50: 20.4 µM
  TGI: 55.8 µM
SN12C renal
  GI50: 18.6 µM
  TGI: 44.1 µM
SNB-19 CNS
  GI50: 67.5 µM
  TGI: > 100 µM
SNB-75 CNS
  GI50: 56.7 µM
  TGI: > 100 µM
SR leukemia
  GI50: 42.6 µM
  TGI: > 100 µM
SW-620 colon
  GI50: 33.4 µM
  TGI: > 100 µM
T-47D breast
  TGI: 83.7 µM
TK-10 renal
  GI50: 7.46 µM
  TGI: 31.7 µM
U251 CNS
  GI50: 19.7 µM
  TGI: 59.4 µM
UACC-257 melanoma
  GI50: 30.1 µM
  TGI: 78.3 µM
UACC-62 melanoma
  GI50: 15.6 µM
  TGI: 28.9 µM
UO-31 renal
  GI50: 56 µM
  TGI: > 100 µM
